Results: ChEMBL document CHEMBL1201862, “PubChem BioAssay data set” (2004)
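Cultured in 96-well plates, cells were exposed to test compound for 48 hours across five concentrations. GI50 is the concentration that inhibits growth by half.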 Calls of active or inactive are those of the source. Rule as the data show it: active = GI50 up to about 1.1 µM and inactive = higher.

Assays:
Assay in all cases: NCI-60 cell line screen, 48 h
TK-10 = system: TK-10
U-251 = system: U-251
UO-31 = system: UO-31
HCT-15 = system: HCT-15
SN12C = system: SN12C
K562 = system: K562
RPMI-8226 = system: RPMI-8226
SK-MEL-28 = system: SK-MEL-28
A498 = system: A498
MOLT-4 = system: MOLT-4
EKVX = system: EKVX
HCT-116 = system: HCT-116
UACC-62 = system: UACC-62
SNB-19 = system: SNB-19
ACHN = system: ACHN
T47D = system: T47D
KM12 = system: KM12
CCRF-CEM = system: CCRF-CEM
SF-268 = system: SF-268
RXF 393 = system: RXF 393
HOP-92 = system: HOP-92
PC-3 = system: PC-3
OVCAR-8 = system: OVCAR-8
OVCAR-4 = system: OVCAR-4
MDA-MB-231 = system: MDA-MB-231
NCI-H226 = system: NCI-H226
HOP-62 = system: HOP-62
MDA-N = system: MDA-N
786-0 = system: 786-0
NCI-H522 = system: NCI-H522
NCI-H23 = system: NCI-H23
COLO 205 = system: COLO 205
Malme-3M = system: Malme-3M
NCI-H460 = system: NCI-H460
SK-MEL-5 = system: SK-MEL-5
SW-620 = system: SW-620
OVCAR-3 = system: OVCAR-3
LOX IMVI = system: LOX IMVI
NCI/ADR-RES = system: NCI/ADR-RES
CAKI-1 = system: CAKI-1
SR = system: SR
BT-549 = system: BT-549
HL-60 = system: HL-60
SK-OV-3 = system: SK-OV-3
MDA-MB-435 = system: MDA-MB-435
A549 = system: A549
SK-MEL-2 = system: SK-MEL-2
Hs-578T = system: Hs-578T
SF-539 = system: SF-539
SF-295 = system: SF-295
HCC 2998 = system: HCC 2998
M14 = system: M14
UACC-257 = system: UACC-257
MCF7 = system: MCF7
OVCAR-5 = system: OVCAR-5
DU-145 = system: DU-145
HT-29 = system: HT-29
IGROV-1 = system: IGROV-1
SNB-75 = system: SNB-75

Structure (SMILES): COc1ccc(/N=N/C(=O)NC(CC(C)C)C(=O)NCC(=O)O)cc1 (stereo not drawn)
- GI50 (TK-10): 25.3 µM (inactive)
- GI50 (U-251): > 100 µM (inactive)
- GI50 (UO-31): 1.04 µM (active)
- GI50 (HCT-15): 1.46 µM
- GI50 (SN12C): > 46.8 µM (inactive)
- GI50 (K562): 0.451 µM (active)
- GI50 (RPMI-8226): 11.7 µM (inactive)
- GI50 (SK-MEL-28): 57.7 µM (inactive)
- GI50 (A498): > 100 µM (inactive)
- GI50 (MOLT-4): 1.83 µM (inactive)
- GI50 (EKVX): 43.4 µM (inactive)
- GI50 (HCT-116): 12.5 µM (inactive)
- GI50 (UACC-62): 1.61 µM (inactive)
- GI50 (SNB-19): > 92.5 µM (inactive)
- GI50 (ACHN): 1.54 µM (inactive)
- GI50 (T47D): 3.03 µM (inactive)
- GI50 (KM12): 3.76 µM (inactive)
- GI50 (CCRF-CEM): 9.31 µM (inactive)
- GI50 (SF-268): > 43.8 µM (inactive)
- GI50 (RXF 393): > 100 µM (inactive)
- GI50 (HOP-92): > 100 µM (inactive)
- GI50 (PC-3): 4.17 µM (inactive)
- GI50 (OVCAR-8): 21.3 µM (inactive)
- GI50 (OVCAR-4): > 51.5 µM (inactive)
- GI50 (MDA-MB-231): > 58.2 µM (inactive)
- GI50 (NCI-H226): > 41 µM (inactive)
- GI50 (HOP-62): 41.6 µM (inactive)
- GI50 (MDA-N): 26.6 µM (inactive)
- GI50 (786-0): > 100 µM (inactive)
- GI50 (NCI-H522): 22.5 µM (inactive)
- GI50 (NCI-H23): 57.3 µM (inactive)
- GI50 (COLO 205): 4.47 µM (inactive)
- GI50 (Malme-3M): 19.7 µM (inactive)
- GI50 (NCI-H460): 6.65 µM (inactive)
- GI50 (SK-MEL-5): 3.79 µM (inactive)
- GI50 (SW-620): 12.8 µM (inactive)
- GI50 (OVCAR-3): 19.8 µM (inactive)
- GI50 (LOX IMVI): 1.37 µM (inactive)
- GI50 (NCI/ADR-RES): 19.5 µM (inactive)
- GI50 (CAKI-1): > 100 µM (inactive)
- GI50 (SR): 19.5 µM (inactive)
- GI50 (BT-549): > 38.7 µM (inactive)
- GI50 (HL-60): 5.9 µM (inactive)
- GI50 (SK-OV-3): > 100 µM (inactive)
- GI50 (MDA-MB-435): 1.5 µM (inactive)
- GI50 (A549): 3.29 µM (inactive)
- GI50 (SK-MEL-2): > 18.4 µM (inactive)
- GI50 (Hs-578T): 89.3 µM (inactive)
- GI50 (SF-539): 4.18 µM (inactive)
- GI50 (SF-295): 5.53 µM (inactive)
- GI50 (HCC 2998): 8.97 µM (inactive)
- GI50 (M14): 2.94 µM (inactive)
- GI50 (UACC-257): 32.8 µM (inactive)
- GI50 (MCF7): 13.2 µM (inactive)
- GI50 (OVCAR-5): 13.5 µM (inactive)
- GI50 (DU-145): 12.2 µM (inactive)
- GI50 (HT-29): 14.8 µM (inactive)
- GI50 (IGROV-1): 6.27 µM (inactive)
- GI50 (SNB-75): 89.5 µM (inactive)

Structure (SMILES): CCOP(=O)(OCC)C(c1ccc(F)cc1)N(C(=O)NC(F)(F)F)c1cccc(C(F)(F)F)c1 (stereo not drawn)
- GI50 (TK-10): > 100 µM (inactive)
- GI50 (U-251): > 100 µM (inactive)
- GI50 (UO-31): 94.8 µM (inactive)
- GI50 (HCT-15): > 100 µM
- GI50 (SN12C): > 100 µM (inactive)
- GI50 (K562): 50.2 µM (inactive)
- GI50 (RPMI-8226): 63 µM (inactive)
- GI50 (SK-MEL-28): > 100 µM (inactive)
- GI50 (A498): > 100 µM (inactive)
- GI50 (MOLT-4): 61.9 µM (inactive)
- GI50 (EKVX): > 100 µM (inactive)
- GI50 (HCT-116): 84.3 µM (inactive)
- GI50 (UACC-62): 72.8 µM (inactive)
- GI50 (SNB-19): 77.3 µM (inactive)
- GI50 (ACHN): > 100 µM (inactive)
- GI50 (T47D): 83.9 µM (inactive)
- GI50 (KM12): > 100 µM (inactive)
- GI50 (CCRF-CEM): > 100 µM (inactive)
- GI50 (SF-268): > 100 µM (inactive)
- GI50 (RXF 393): 52.8 µM (inactive)
- GI50 (HOP-92): 33.2 µM (inactive)
- GI50 (PC-3): > 100 µM (inactive)
- GI50 (OVCAR-8): > 100 µM (inactive)
- GI50 (OVCAR-4): 96.4 µM (inactive)
- GI50 (MDA-MB-231): > 100 µM (inactive)
- GI50 (NCI-H226): > 100 µM (inactive)
- GI50 (HOP-62): > 100 µM (inactive)
- GI50 (MDA-N): > 100 µM (inactive)
- GI50 (786-0): > 10 µM (inactive)
- GI50 (NCI-H522): 67.8 µM (inactive)
- GI50 (NCI-H23): > 100 µM (inactive)
- GI50 (COLO 205): > 100 µM (inactive)
- GI50 (Malme-3M): > 100 µM (inactive)
- GI50 (NCI-H460): 91.4 µM (inactive)
- GI50 (SK-MEL-5): > 100 µM (inactive)
- GI50 (SW-620): > 100 µM (inactive)
- GI50 (OVCAR-3): > 100 µM (inactive)
- GI50 (LOX IMVI): > 100 µM (inactive)
- GI50 (NCI/ADR-RES): 82.8 µM (inactive)
- GI50 (CAKI-1): > 100 µM (inactive)
- GI50 (SR): 75.3 µM (inactive)
- GI50 (BT-549): > 100 µM (inactive)
- GI50 (HL-60): 43.9 µM (inactive)
- GI50 (SK-OV-3): > 100 µM (inactive)
- GI50 (MDA-MB-435): > 100 µM (inactive)
- GI50 (A549): 82.2 µM (inactive)
- GI50 (SK-MEL-2): > 100 µM (inactive)
- GI50 (Hs-578T): 59.8 µM (inactive)
- GI50 (SF-539): > 100 µM (inactive)
- GI50 (SF-295): > 100 µM (inactive)
- GI50 (HCC 2998): > 100 µM (inactive)
- GI50 (M14): > 100 µM (inactive)
- GI50 (UACC-257): > 100 µM (inactive)
- GI50 (MCF7): > 100 µM (inactive)
- GI50 (OVCAR-5): > 100 µM (inactive)
- GI50 (DU-145): > 100 µM (inactive)
- GI50 (HT-29): 86.9 µM (inactive)
- GI50 (IGROV-1): 65.8 µM (inactive)
- GI50 (SNB-75): 46.9 µM (inactive)
